Test results reported in PubChem BioAssay (NCI).
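Each compound was tested at five concentrations against cells in 96-well plates for 48 hours. GI50 = concentration required for 50% inhibition of growth. At the TGI there is no net growth.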

Key:
Experiment in all cases: NCI anticancer screen, dose series, 48 h
SN12C renal = tested on: SN12C renal
NCI/ADR-RES ovarian = tested on: NCI/ADR-RES ovarian
HT29 colon = tested on: HT29 colon
SK-MEL-5 melanoma = tested on: SK-MEL-5 melanoma
OVCAR-5 ovarian = tested on: OVCAR-5 ovarian
M14 melanoma = tested on: M14 melanoma
SF-268 CNS = tested on: SF-268 CNS
IGROV1 ovarian = tested on: IGROV1 ovarian
A549 NSCLC = tested on: A549 NSCLC
EKVX NSCLC = tested on: EKVX NSCLC

O=P1(O)c2ccccc2Nc2cc(C(F)(F)F)ccc21
TGI (SN12C renal): > 100 µM | TGI (NCI/ADR-RES ovarian): > 100 µM | TGI (HT29 colon): > 100 µM | TGI (SK-MEL-5 melanoma): > 100 µM | TGI (OVCAR-5 ovarian): > 100 µM | TGI (M14 melanoma): > 100 µM | TGI (SF-268 CNS): > 100 µM | TGI (IGROV1 ovarian): > 100 µM | TGI (A549 NSCLC): > 100 µM | TGI (EKVX NSCLC): > 100 µM

CC1/C(=N/Nc2ccc([N+](=O)[O-])cc2)CC2C3(C)CCC2(C(C)C(=O)O)C(=O)C13 (stereo not given)
GI50 (SN12C renal): 60.9 µM | TGI (SN12C renal): > 100 µM | GI50 (NCI/ADR-RES ovarian): 5.7 µM | TGI (NCI/ADR-RES ovarian): > 100 µM | GI50 (HT29 colon): 6.18 µM | TGI (HT29 colon): > 100 µM | GI50 (SK-MEL-5 melanoma): 11.4 µM | TGI (SK-MEL-5 melanoma): > 100 µM | GI50 (OVCAR-5 ovarian): > 100 µM | TGI (OVCAR-5 ovarian): > 100 µM | GI50 (M14 melanoma): 11.2 µM | TGI (M14 melanoma): > 100 µM | GI50 (SF-268 CNS): 33.5 µM | TGI (SF-268 CNS): > 100 µM | GI50 (IGROV1 ovarian): > 100 µM | TGI (IGROV1 ovarian): > 100 µM | GI50 (A549 NSCLC): 5.5 µM | TGI (A549 NSCLC): > 100 µM | GI50 (EKVX NSCLC): 3.36 µM | TGI (EKVX NSCLC): > 100 µM

Clc1ccc2c(c1)-c1ccccc1C1=NCCN12
GI50 (SN12C renal): 2.41 µM | TGI (SN12C renal): 12.6 µM | GI50 (NCI/ADR-RES ovarian): 1.6 µM | TGI (NCI/ADR-RES ovarian): 4.8 µM | GI50 (HT29 colon): 1.17 µM | TGI (HT29 colon): 3.6 µM | GI50 (SK-MEL-5 melanoma): 1.56 µM | TGI (SK-MEL-5 melanoma): 2.94 µM | GI50 (OVCAR-5 ovarian): 2.68 µM | TGI (OVCAR-5 ovarian): 13.4 µM | GI50 (M14 melanoma): 1.56 µM | TGI (M14 melanoma): 3.07 µM | GI50 (SF-268 CNS): 1.91 µM | TGI (SF-268 CNS): 5.42 µM | GI50 (IGROV1 ovarian): 2.14 µM | TGI (IGROV1 ovarian): 5.36 µM | GI50 (A549 NSCLC): 1.53 µM | TGI (A549 NSCLC): 3.77 µM | GI50 (EKVX NSCLC): 2.25 µM | TGI (EKVX NSCLC): 9.09 µM

NCCCCN(Cc1nc2ccccc2[nH]1)[C@H]1CCCc2cccnc21
GI50 (SN12C renal): 14.9 µM | TGI (SN12C renal): > 100 µM | GI50 (NCI/ADR-RES ovarian): 26.8 µM | TGI (NCI/ADR-RES ovarian): > 100 µM | GI50 (HT29 colon): 6.29 µM | TGI (HT29 colon): 34.1 µM | GI50 (SK-MEL-5 melanoma): 14.5 µM | TGI (SK-MEL-5 melanoma): 27.8 µM | GI50 (OVCAR-5 ovarian): 11.8 µM | TGI (OVCAR-5 ovarian): > 100 µM | GI50 (M14 melanoma): 13.9 µM | TGI (M14 melanoma): 30.2 µM | GI50 (SF-268 CNS): 9.71 µM | TGI (SF-268 CNS): 97.3 µM | GI50 (IGROV1 ovarian): 12.6 µM | TGI (IGROV1 ovarian): > 100 µM | GI50 (A549 NSCLC): 15.2 µM | TGI (A549 NSCLC): 44.4 µM | GI50 (EKVX NSCLC): 15.2 µM | TGI (EKVX NSCLC): > 100 µM

CS(=O)(=O)Nc1cc(-c2ccc3ncnc(Nc4ccc5c(cnn5Cc5ccccc5F)c4)c3c2)cnc1Cl
GI50 (SN12C renal): 1.13 µM | TGI (SN12C renal): > 100 µM | GI50 (NCI/ADR-RES ovarian): 8.32 µM | TGI (NCI/ADR-RES ovarian): > 100 µM | GI50 (HT29 colon): 1.6 µM | TGI (HT29 colon): > 47.3 µM | GI50 (SK-MEL-5 melanoma): 1.76 µM | TGI (SK-MEL-5 melanoma): 3.28 µM | GI50 (OVCAR-5 ovarian): 2.22 µM | TGI (OVCAR-5 ovarian): > 100 µM | GI50 (M14 melanoma): 2.66 µM | TGI (M14 melanoma): 15.6 µM | GI50 (SF-268 CNS): 1.31 µM | TGI (SF-268 CNS): 9.18 µM | GI50 (IGROV1 ovarian): 0.575 µM | TGI (IGROV1 ovarian): 4.31 µM | GI50 (A549 NSCLC): 2.87 µM | TGI (A549 NSCLC): > 53.7 µM | GI50 (EKVX NSCLC): 1.69 µM | TGI (EKVX NSCLC): 9.53 µM
